Measured values from patent publication US20240398784A1, “C-LINKED ISOQUINOLINE AMIDES AS LRRK2 INHIBITORS, PHARMACEUTICAL COMPOSITIONS, AND USES THEREOF” (Merck Sharp & Dohme LLC, priority 2021, published 2024).

biological target: LRRK2 G2019S (Homo sapiens, UniProt Q5S007, G2019S); experiment: LRRK2 G2019S Km ATP LanthaScreen assay; assay type: biochemical; settings: read-out: LRRK2 pIC50 (converted)
Sequence (Q5S007 whole entry G2019S): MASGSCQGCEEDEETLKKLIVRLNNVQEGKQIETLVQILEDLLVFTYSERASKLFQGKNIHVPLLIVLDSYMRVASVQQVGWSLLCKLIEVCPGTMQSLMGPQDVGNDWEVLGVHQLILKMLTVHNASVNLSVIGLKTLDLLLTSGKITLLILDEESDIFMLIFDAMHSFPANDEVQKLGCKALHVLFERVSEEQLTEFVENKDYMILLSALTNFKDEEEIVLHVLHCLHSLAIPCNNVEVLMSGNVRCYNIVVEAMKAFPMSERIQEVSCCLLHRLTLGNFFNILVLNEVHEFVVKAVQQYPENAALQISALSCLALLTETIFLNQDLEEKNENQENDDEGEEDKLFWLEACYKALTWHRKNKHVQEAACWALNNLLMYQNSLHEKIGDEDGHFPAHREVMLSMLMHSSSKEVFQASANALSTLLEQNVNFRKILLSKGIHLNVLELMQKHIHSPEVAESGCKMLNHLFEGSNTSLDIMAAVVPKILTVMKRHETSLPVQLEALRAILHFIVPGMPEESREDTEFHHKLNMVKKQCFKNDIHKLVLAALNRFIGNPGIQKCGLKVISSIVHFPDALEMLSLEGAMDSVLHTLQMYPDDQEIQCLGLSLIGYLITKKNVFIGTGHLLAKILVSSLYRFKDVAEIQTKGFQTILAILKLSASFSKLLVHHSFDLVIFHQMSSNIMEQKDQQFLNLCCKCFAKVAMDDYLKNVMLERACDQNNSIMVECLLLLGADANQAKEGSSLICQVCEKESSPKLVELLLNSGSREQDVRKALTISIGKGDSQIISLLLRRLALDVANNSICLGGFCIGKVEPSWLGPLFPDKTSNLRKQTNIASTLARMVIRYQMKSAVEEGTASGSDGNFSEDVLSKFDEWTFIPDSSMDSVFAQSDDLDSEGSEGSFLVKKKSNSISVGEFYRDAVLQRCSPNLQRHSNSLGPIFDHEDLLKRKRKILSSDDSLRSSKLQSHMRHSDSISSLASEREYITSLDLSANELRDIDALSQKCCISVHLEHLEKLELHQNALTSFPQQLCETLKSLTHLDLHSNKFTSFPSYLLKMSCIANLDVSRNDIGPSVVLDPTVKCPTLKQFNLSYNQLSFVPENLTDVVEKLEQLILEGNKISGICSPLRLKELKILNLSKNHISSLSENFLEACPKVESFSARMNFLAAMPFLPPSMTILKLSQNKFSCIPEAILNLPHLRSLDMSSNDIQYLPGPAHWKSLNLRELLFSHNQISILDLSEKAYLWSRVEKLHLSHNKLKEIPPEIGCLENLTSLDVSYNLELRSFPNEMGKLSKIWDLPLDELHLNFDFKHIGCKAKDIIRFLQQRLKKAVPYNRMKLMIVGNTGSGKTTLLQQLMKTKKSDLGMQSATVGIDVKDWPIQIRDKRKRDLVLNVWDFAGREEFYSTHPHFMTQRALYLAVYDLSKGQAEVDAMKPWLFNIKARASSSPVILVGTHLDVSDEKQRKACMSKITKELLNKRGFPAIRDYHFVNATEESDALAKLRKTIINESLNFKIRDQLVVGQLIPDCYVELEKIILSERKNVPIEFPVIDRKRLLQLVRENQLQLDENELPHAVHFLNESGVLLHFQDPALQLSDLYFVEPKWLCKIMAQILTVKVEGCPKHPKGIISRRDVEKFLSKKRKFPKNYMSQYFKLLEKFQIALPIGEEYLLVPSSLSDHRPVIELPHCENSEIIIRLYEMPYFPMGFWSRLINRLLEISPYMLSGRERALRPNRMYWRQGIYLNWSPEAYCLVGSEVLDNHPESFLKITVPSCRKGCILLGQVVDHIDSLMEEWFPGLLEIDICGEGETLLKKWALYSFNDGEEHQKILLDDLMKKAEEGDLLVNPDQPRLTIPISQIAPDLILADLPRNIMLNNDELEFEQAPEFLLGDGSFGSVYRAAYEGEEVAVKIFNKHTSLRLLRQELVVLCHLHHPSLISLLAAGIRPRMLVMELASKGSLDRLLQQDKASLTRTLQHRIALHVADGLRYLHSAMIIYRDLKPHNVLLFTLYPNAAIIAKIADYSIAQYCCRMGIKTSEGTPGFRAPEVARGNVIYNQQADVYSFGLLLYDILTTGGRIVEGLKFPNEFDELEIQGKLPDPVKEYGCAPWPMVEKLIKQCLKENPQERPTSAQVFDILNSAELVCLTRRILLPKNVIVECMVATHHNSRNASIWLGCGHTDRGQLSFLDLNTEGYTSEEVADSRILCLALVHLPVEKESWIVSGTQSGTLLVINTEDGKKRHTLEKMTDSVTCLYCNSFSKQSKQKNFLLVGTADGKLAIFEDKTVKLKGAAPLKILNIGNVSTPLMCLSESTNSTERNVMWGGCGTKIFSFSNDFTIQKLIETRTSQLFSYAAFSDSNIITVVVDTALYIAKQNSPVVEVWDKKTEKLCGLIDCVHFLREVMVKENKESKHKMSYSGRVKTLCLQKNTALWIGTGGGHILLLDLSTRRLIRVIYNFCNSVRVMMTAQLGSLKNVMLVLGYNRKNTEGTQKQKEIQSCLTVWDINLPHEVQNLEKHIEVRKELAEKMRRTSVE

IC50	Compound
0.234 nM	CC(C)(O)C1CC1C(=O)Nc1cc2cc(C3CCN(C4(C)COCC4F)CC3)c(Cl)cc2cn1 (single isomer, unassigned) [Ex-6.26, N-(7-chloro-6-(1-(4-fluoro-3-methyltetrahydrofuran-3-yl)piperidin-4-yl)isoquinolin-3-yl)-2-(2-hydroxypropan-2-yl)cyclopropane-1-carboxamide]
1.48 nM	CC1(N2CCC(c3cc4cc(NC(=O)C5CC5C(F)F)ncc4cc3Cl)CC2)COCC1O (single isomer, unassigned) [Ex-4.43, N-(7-chloro-6-(1-(4-hydroxy-3-methyltetrahydrofuran-3-yl)piperidin-4-yl)isoquinolin-3-yl)-2-(difluoromethyl)cyclopropane-1-carboxamide]
7.24 nM	CC1(N2CCC(c3cc4cc(NC(=O)C5CC5C(F)F)ncc4cc3Cl)CC2)COCC1O (single isomer, unassigned) [Ex-10.9, N-(7-chloro-6-(1-(4-hydroxy-3-methyltetrahydrofuran-3-yl)piperidin-4-yl)isoquinolin-3-yl)-2-(difluoromethyl)cyclopropane-1-carboxamide]
110 nM	O=C(Nc1cc2cc(C3CCC(N4CC(F)(F)C4)CC3)c(Cl)cc2cn1)C1CC1c1ccccn1 (single isomer, unassigned) [Ex-5.3, N-(7-chloro-6-(4-(3,3-difluoroazetidin-1-yl)cyclohexyl)isoquinolin-3-yl)-2-(pyridin-2-yl)cyclopropane-1-carboxamide]
1020 nM	CC1(C)CCC(C(=O)Nc2cc3cc(C4CCC(N5CCC(F)C5)CC4)c(Cl)cc3cn2)CO1 (single isomer, unassigned) [Ex-5.18, N-(7-chloro-6-(4-(3-fluoropyrrolidin-1-yl)cyclohexyl)isoquinolin-3-yl)-6,6-dimethyltetrahydro-2H-pyran-3-carboxamide]
38.9 nM	CC1(C)CC(C(=O)Nc2cc3cc(C4CCC(N5CCC(F)C5)CC4)c(Cl)cc3cn2)CCO1 (single isomer, unassigned) [Ex-5.14, N-(7-chloro-6-(4-(3-fluoropyrrolidin-1-yl)cyclohexyl)isoquinolin-3-yl)-2,2-dimethyltetrahydro-2H-pyran-4-carboxamid]
5.89 nM	O=C(Nc1cc2cc(C3CCN(C4COC4)CC3F)c(Cl)cc2cn1)C1CC1 (single isomer, unassigned) [Ex-14.1, N-(7-chloro-6-((3R,4R,3S,4R,3R,4S or 3S,4S)-3-fluoro-1-(oxetan-3-yl)piperidin-4-yl)isoquinolin-3-yl)cyclopropanecarboxamide]
19.1 nM	N#CC1(c2ccc3cnc(NC(=O)C4CC4)cc3c2)CC1 [Ex-17.1]
61.7 nM	CC1C(C(=O)Nc2cc3cc(C4CCN(C5(C)COCC5O)CC4)c(Cl)cc3cn2)C12CCOCC2 (single isomer, unassigned) [Ex-10.5, N-(7-chloro-6-(1-(4-hydroxy-3-methyltetrahydrofuran-3-yl)piperidin-4-yl)isoquinolin-3-yl)-2-methyl-6-oxaspiro[2.5]octane-1-carboxamide]
18.2 nM	O=C(Nc1cc2cc(C3CCN(C4COCC4O)CC3)c(Cl)cc2cn1)C1CC12CCOCC2 (single isomer, unassigned) [Ex-4.3, N-(7-chloro-6-(1-(4-hydroxytetrahydrofuran-3-yl)piperidin-4-yl)isoquinolin-3-yl)-6-oxaspiro[2.5]octane-1-carboxamide]
1.95 nM	CC1(N2CCC(c3cc4cc(NC(=O)C5C6COCC65)ncc4cc3Cl)CC2)CCOC1 (single isomer, unassigned) [Ex-6.11, N-(7-chloro-6-(1-(3-methyltetrahydrofuran-3-yl)piperidin-4-yl)isoquinolin-3-yl)-3-oxabicyclo[3.1.0]hexane-6-carboxamide]
1.66 nM	CC1(N2CCC(c3cc4cc(NC(=O)C5CC56CCOCC6)ncc4cc3Cl)CC2)COCC1F (single isomer, unassigned) [Ex-6.25, N-(7-chloro-6-(1-(4-fluoro-3-methyltetrahydrofuran-3-yl)piperidin-4-yl)isoquinolin-3-yl)-6-oxaspiro[2.5]octane-1-carboxamide]
100 nM	CC1(N2CCC(c3cc4cc(NC(=O)C5CC(c6ccccn6)C5)ncc4cc3Cl)CC2)COCC1O (single isomer, unassigned) [Ex-4.75, N-(7-chloro-6-(1-(4-hydroxy-3-methyltetrahydrofuran-3-yl)piperidin-4-yl)isoquinolin-3-yl)-3-(pyridin-2-yl)cyclobutane-1-carboxamide]
1.7 nM	COC1CN(C2CCC(c3cc4cc(NC(=O)C5CC56CCOCC6)ncc4cc3Cl)CC2)C1 (single isomer, unassigned) [Ex-11.4, N-(7-chloro-6-(4-(3-methoxyazetidin-1-yl)cyclohexyl)isoquinolin-3-yl)-6-oxaspiro[2.5]octane-1-carboxamide]
7.94 nM	CCOC1CC2(C1)CC2C(=O)Nc1cc2cc(C3CCN(C4(C)COCC4O)CC3)c(Cl)cc2cn1 (single isomer, unassigned) [Ex-4.29, N-(7-chloro-6-(1-(4-hydroxy-3-methyltetrahydrofuran-3-yl)piperidin-4-yl)isoquinolin-3-yl)-5-ethoxyspiro[2.3]hexane-1-carboxamide]
0.0813 nM	CC1(N2CCC(c3cc4cc(NC(=O)C5CC5c5ccccn5)ncc4cc3F)CC2)COCC1O (single isomer, unassigned) [Ex-8.4, N-(7-fluoro-6-(1-(4-hydroxy-3-methyltetrahydrofuran-3-yl)piperidin-4-yl)isoquinolin-3-yl)-2-(pyridin-2-yl)cyclopropane-1-carboxamide]
129 nM	CC1(N2CCC(c3cc4cc(NC(=O)C5CC5c5cccs5)ncc4cc3Cl)CC2)COCC1O (single isomer, unassigned) [Ex-4.59, N-(7-chloro-6-(1-(4-hydroxy-3-methyltetrahydrofuran-3-yl)piperidin-4-yl)isoquinolin-3-yl)-2-(thiophen-2-yl)cyclopropane-1-carboxamide]
0.871 nM	CC1(C)CC(C(=O)Nc2cc3cc(C4CCN(C5(C)COCC5F)CC4)c(Cl)cc3cn2)CCO1 (single isomer, unassigned) [Ex-6.38, N-(7-chloro-6-(1-(4-fluoro-3-methyltetrahydrofuran-3-yl)piperidin-4-yl)isoquinolin-3-yl)-2,2-dimethyltetrahydro-2H-pyran-4-carboxamide]
112 nM	CC1(N2CCC(c3cc4cc(NC(=O)C5CC56CCOC6)ncc4cc3Cl)CC2)COCC1F (single isomer, unassigned) [Ex-6.2, (R or S)-N-(7-chloro-6-(1-((3R,4R or 3S,4S)-4-fluoro-3-methyltetrahydrofuran-3-yl)piperidin-4-yl)isoquinolin-3-yl)-5-oxaspiro [2.4] heptane-1-carboxamide]
0.115 nM	CC(C)(O)C1CC1C(=O)Nc1cc2cc(C3CCN(C4(C)CCOC4)CC3)c(Cl)cc2cn1 (single isomer, unassigned) [Ex-6.15, N-(7-chloro-6-(1-(3-methyltetrahydrofuran-3-yl)piperidin-4-yl)isoquinolin-3-yl)-2-(2-hydroxypropan-2-yl)cyclopropane-1-carboxamide]

The remaining lines, values behind:

Compound	IC50
Cc1cc2cnc(NC(=O)C3CC3C(F)F)cc2cc1C1CCN(C2(C)COCC2O)CC1 (centres unmarked) [Ex-2.55]	3.98 nM
CCC1C(C(=O)Nc2cc3cc(C4CC45CC5)c(Cl)cc3cn2)C1c1cnn(C)c1 (centres unmarked) [Ex-2.99]	117 nM
CC1(N2CCC(c3cc4cc(NC(=O)C5CC(F)(F)C5)ncc4cc3Cl)CC2)COCC1O (single isomer, unassigned) [Ex-1.18, N-(7-chloro-6-(1-((3R,4R or 3S,4S)-4-hydroxy-3-methyltetrahydrofuran-3-yl)piperidin-4-yl)isoquinolin-3-yl)-3,3-difluorocyclobutane-1-carboxamide]	1.35 nM
CC(C)N1CCOC(CC(=O)Nc2cc3cc(C4(C#N)CC45CC5)ccc3cn2)C1 (single isomer, unassigned) [Ex-1.46, (R or S)-N-(6-(1-cyanospiro[2.2]pentan-1-yl)isoquinolin-3-yl)-2-(4-isopropylmorpholin-2-yl)acetamide]	13.8 nM
CC1(N2CCC(c3cc4cc(NC(=O)c5cnn(C67CC(C6)C7)c5)ncc4cc3Cl)CC2)COCC1F (single isomer, unassigned) [Ex-1.53, 1-(bicyclo[1.1.1]pentan-1-yl)-N-(7-chloro-6-(1-((3R,4R or 3S,4S)-4-fluoro-3-methyltetrahydrofuran-3-yl)piperidin-4-yl)isoquinolin-3-yl)-1H-pyrazole-4-carboxamide]	0.676 nM
CCC1C(C(=O)Nc2cc3cc(C4CCN(C5(C)COCC5F)CC4)c(Cl)cc3cn2)C1c1ccn(C)n1 (centres unmarked) [Ex-2.86]	0.0813 nM
Cc1cc2cnc(NC(=O)C3CC3C(F)F)cc2cc1C1CCN(C2(C)COCC2O)CC1 (centres unmarked) [Ex-2.53]	0.813 nM
CC1(N2CCC(c3cc4cc(NC(=O)Cn5cc(Cl)cn5)ncc4cc3Cl)CC2)COCC1O (centres unmarked) [Ex-3.9]	0.977 nM
O=C(Nc1cc2cc(C3CCN(C4COC4)CC3)c(Cl)cc2cn1)C1CC12CCOCC2 (racemic) [Ex-1.9, Rac-N-(7-chloro-6-(1-(oxetan-3-yl)piperidin-4-yl)isoquinolin-3-yl)-6-oxaspiro[2.5]octane-1-carboxamide]	2.88 nM
CC(C)(O)c1ccc(CC(=O)Nc2cc3cc(C4(C#N)CC45CC5)ccc3cn2)cc1 (single isomer, unassigned) [Ex-1.44, (R or S)-N-(6-(1-cyanospiro[2.2]pentan-1-yl)isoquinolin-3-yl)-2-(4-(2-hydroxypropan-2-yl)phenyl)acetamide]	22.9 nM
CC1(N2CCC(c3cc4cc(NC(=O)C5CC5C5CCOCC5)ncc4cc3Cl)CC2)COCC1F (centres unmarked) [Ex-2.92]	0.0813 nM
Cn1ccc(C2CC2C(=O)Nc2cc3cc(C4(C#N)CC45CC5)ccc3cn2)n1 (centres unmarked) [Ex-2.72]	3.31 nM
N#CC1(c2ccc3cnc(NC(=O)[C@@H]4C[C@@H](O)[C@H](F)C4)cc3c2)CC12CC2 (single isomer, unassigned) [Ex-1.29, (1R,3R,4R)-N-(6-((R or S)-1-cyanospiro[2.2]pentan-1-yl)isoquinolin-3-yl)-3-fluoro-4-hydroxycyclopentane-1-carboxamide]	20.4 nM
CC1(N2CCC(c3cc4cc(NC(=O)C5(Cn6ccnc6)CC5)ncc4cc3Cl)CC2)COCC1O (centres unmarked) [Ex-3.3]	3.31 nM
Cc1cc2cnc(NC(=O)C3CC3C(F)F)cc2cc1C1CCN(C2(C)COCC2O)CC1 (centres unmarked) [Ex-2.54]	0.49 nM
